From EP4810020A1, “NANOPARTICLE ADIPOSOME ENCAPSULATING HYDROPHOBIC SMALL-MOLECULE DRUG, PREPARATION METHOD THEREFOR, AND USE THEREOF” (WeCareLife Biotech Co., Ltd., priority 2023, dated 2025)
Where two headings read alike, the source gives them in different places. Square brackets hold non-standard residues; d marks the D form. Peptide text beside a SMILES is read from it. * marks the point of attachment. Dolaproine = CO[C@@H]([C@@H]1CCCN1)[C@@H](C)C(=O)O; Dil = CC[C@H](C)[C@H](NC)[C@@H](CC(=O)O)OC; X1 = C[C@@H](N*)[C@@H](O)c1ccccc1; NMeV = CN[C@H](C(=O)O)C(C)C

Assays:
[1] = dissolution / appearance in PBS
Method: Paclitaxel and the prepared paclitaxel adiposomes were dissolved in PBS, respectively.

[2] = cited from earlier work

solubility / state in PBS [1]	Compound	solubility / state in PBS ([1]; in PBS)	logP [2]
–	CC[C@@]1(O)C(=O)OCc2c1cc1n(c2=O)Cc2cc3ccccc3nc2-1 [Camptothecin]	very low solubility in PBS	1.9
very low solubility in PBS	C=CCc1ccc(O)c(-c2ccc(O)c(CC=C)c2)c1 [Honokiol]	–	–
–	CC[C@H](C)[C@@H]([C@@H](CC(=O)N1CCC[C@H]1[C@H](OC)[C@@H](C)C(=O)N[C@H](C)[C@@H](O)c1ccccc1)OC)N(C)C(=O)[C@@H](NC(=O)[C@@H](NC)C(C)C)C(C)C [Monomethyl auristatin E] (H-[NMeV]V[Dil][Dolaproine]-X1)	very low solubility in PBS	3.4
–	CC(=O)O[C@H]1C(=O)[C@@]2(C)[C@H]([C@H](OC(=O)c3ccccc3)[C@]3(O)C[C@H](OC(=O)[C@H](O)[C@@H](NC(=O)c4ccccc4)c4ccccc4)C(C)=C1C3(C)C)[C@]1(OC(C)=O)CO[C@@H]1C[C@@H]2O [Paclitaxel]	very low solubility in PBS	–
